Measured values: patent US7846434B2, “Materials and methods for improved immunoglycoproteins” (Trubion Pharmaceuticals, Inc., priority 2006, dated 2010)

Tests used:
[1] = molecular target: T1, CD37 cell surface receptor (Homo sapiens, UniProt P11049); assay: TRU-016 binding to human PBMC B lymphocytes by two-color flow cytometry
T1 construct: Human PBMCs are isolated over LSM density gradients and incubated with unconjugated TRU-016; endogenous in cells; host or cells: human PBMCs, gated for CD19+ B lymphocytes
T1 sequence (P11049 1-281): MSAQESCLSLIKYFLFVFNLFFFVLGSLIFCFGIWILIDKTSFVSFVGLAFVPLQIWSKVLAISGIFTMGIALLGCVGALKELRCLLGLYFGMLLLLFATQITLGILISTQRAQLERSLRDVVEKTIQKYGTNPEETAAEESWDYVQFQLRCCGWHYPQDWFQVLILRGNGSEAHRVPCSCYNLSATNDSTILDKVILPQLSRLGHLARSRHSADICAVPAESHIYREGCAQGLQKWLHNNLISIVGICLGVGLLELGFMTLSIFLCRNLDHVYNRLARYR
Experimental: Experiments may be performed to confirm that the binding specificity of the parent antibody to the CD37 cell surface receptor is preserved in TRU-016. Human PBMCs are isolated over LSM density gradients and incubated with unconjugated TRU-016 and PE-conjugated anti-human CD19. Cells are washed and incubated with 1:100 FITC GAH IgG (Fc specific) for 45 minutes on ice. Cells are washed and analyzed by two-color flow cytometry on a FACsCalibur instrument using Cell Quest software. Cells are gated for B lymphocytes or non-B lymphocytes by CD19 staining.

Ramos B cells = assay: CDC, Ramos B cells with human serum, propidium iodide; format: cell-based; conditions: TRU-016 from CHO cells cultured with 200 μM DMJ, 10 μM kifenunsine or 200 μM castanospermine
Experimental: To determine the CDC activity of TRU-016 purified protein produced according to Example 2, Ramos B cells were suspended in Iscoves (Gibco/Invitrogen, Grand Island, N.Y.) at 5×10^5 cells/well in 75 μl. TRU-016 (75 μl) were added to the cells at twice the concentrations indicated. Binding reactions were allowed to proceed for 45 minutes prior to centrifugation and washing in serum-free Iscoves. Cells were resuspended in Iscoves with human serum (containing complement) at various concentrations. The cells were incubated 60 minutes at 37° C. Cells were washed by centrifugation and resuspended in staining media with 0.5 μg/ml propidium iodide. Samples were incubated 15 minutes at room temperature in the dark prior to analysis by flow cytometry using a FACsCalibur and CellQuest software (Becton Dickinson).

CD16 = CD16 assays on sera of mice administered TRU-016; format: binding; conditions: sera at 48, 72, 96 and 192 hours after administration of carbohydrate-modified TRU-016
Ramos cells = assay: Ramos tumor model in nude mice; format: in vivo; conditions: TRU-016 from CHO cells treated with 200 μM DMJ, 10 μM kifenunsine or 200 μM castanospermine
Experimental: Nude mice are administered 5×10^6 Ramos cells subcutaneously on day 0 and injected intravenously with 200 μg control human IgG or TRU-016 test protein produced by CHO cells treated with 200 μM DMJ, 10 μM kifenunsine or 200 μM castanospermine on days 0, 2, 4, 6, and 8. Mice typically develop tumors within 6 days and die shortly thereafter. Tumors are measured three times weekly with digital calipers and LabCat software, and tumor volume is calculated as […]. Body weight is also determined once a week.
Mice are sacrificed when the tumor reaches 1500 mm^3 in size (1200 mm^3 on Fridays). Mice are also sacrificed if ulceration of a tumor occurs, the tumor inhibits the mobility of animal, or if weight loss equals or exceeds 20%.

[2] = tested on: CD37-expressing Daudi cancer B-cell line; assay: ADCC, 51Cr-labeled Daudi target cells with human PBL effector cells; format: cell-based; conditions: treated with CS over a range of 100 μM-800 μM final concentration
Experimental: TRU-016 produced as described in Example 8 is incubated with the CD37-expressing Daudi cancer B-cell line in conjunction with primary human peripheral blood lymphocytes (PBL's) effector cells to assess ADCC activity.
Daudi target cells (5×10^6) are added to a 15 ml conical tube and then centrifuged at 250×g for 5 minutes at 20° C. and the supernatant removed. The cell pellet is resuspended by the addition of 0.3 mCi Chromium-51 (^51Cr, GE Healthcare, CJ51). The cells are incubated for 75 minutes at 37° C. with 5% CO2, allowing the cells to incorporate the radioactive isotope. The cells are then washed three times to remove any unincorporated ^51 Cr. This is done by adding 10 mL of complete media—IMDM (Gibco) with 10% FBS (Gibco)—to the tube, centrifuging at 250×g for 5 minutes at 20° C. followed by removal of supernatant. The final resuspension is in 11.5 mL of complete media. TRU-016 is diluted in complete media, at concentrations that are able to generate maximal to background levels of cell lysis (500 ng/mL-0.005 ng/mL). These titrations are plated out, 50 μL/well, in a round bottom 96 well plate. The ^51Cr labeled target cells are added to the dose titrations of TRU-016 at 50 μL/well and the control wells (control media without TRU-016). PBL's are isolated from fresh heparinized whole blood by density gradient centrifugation using Lymphocyte Separation Media as per protocol (LSM, MP Biomedical, 50494/36427). […] The assay is incubated for 4.5-5 hours at 37° C., 5% CO2. The effector cells lyse the target cells relative to the TRU-016 concentration, releasing a proportional amount of ^51Cr into the assay supernatant. Following the incubation the plate is centrifuged at 250×g for 3 minutes at 20° C. A 25 μL volume of cell-free supernatant is removed from all wells to a scintillation plate (Perkin Elmer 6005185) and dried overnight. The amount of ^51Cr isotope in each well of the scintillation plate is measured using a Topcount plate reader (Perkin Elmer, C9904VO). The data are expressed as percent of specific release. Specific release is calculated as: (Sample value−Spontaneous value)/(Maximum value−Spontaneous value)*100% Spontaneous=amount of ^51Cr released from target cell only Maximum release=amount of ^51Cr released from targets treated with detergent lysing agent Background Control=amount of ^51Cr released from target cells+effector cells(No TRU-016)
A dose response is generated and fit to a 4-parameter logistic curve using SoftMax Pro software (Molecular Devices, ver 5.0.1). Titrations of TRU-016 are utilized to create dose response curves of test and reference material for comparison. The EC50 values for the treated articles are compared to the untreated control (no CS) to determine the percent increase in ADCC activity.

## TRU-016: [G28-1 scFv VH11S (SSC-P)H WCH2 WCH3] recombinant single chain protein (SMIP) that binds to the CD37 antigen; SEQ ID NO: 2
[1]; CD19 positive gate
  TRU-016 concentration at saturation of FITC signal on B lymphocytes: approximately 1 μg/mL
  mean fluorescence intensity (MFI) at saturation: ~1000
[1]; non-B lymphocyte gate
  staining of the non-B lymphocyte population: detectable, but very low
Ramos B cells
  CDC versus protein produced by untreated CHO cells: similar
CD16
  CD16 binding activity of sera containing TRU-016: retained its increased CD16 binding activity
Ramos cells
  mean survival time: increase mean survival time
  tumor volume: reduce tumor volume
[2]
  ADCC activity relative to untreated TRU-016: significantly increased
